Broadly, the IC50 is the point on the concentration scale where inhibition reaches its midpoint.

We go through 15 molecules from ChEMBL document CHEMBL1141668, “Synthesis and biological activity of imidazopyridine anticoccidial agents: Part II” (Eur J Med Chem, 2008).

Chain of cGMP-dependent protein kinase (Q8MMZ8 whole entry): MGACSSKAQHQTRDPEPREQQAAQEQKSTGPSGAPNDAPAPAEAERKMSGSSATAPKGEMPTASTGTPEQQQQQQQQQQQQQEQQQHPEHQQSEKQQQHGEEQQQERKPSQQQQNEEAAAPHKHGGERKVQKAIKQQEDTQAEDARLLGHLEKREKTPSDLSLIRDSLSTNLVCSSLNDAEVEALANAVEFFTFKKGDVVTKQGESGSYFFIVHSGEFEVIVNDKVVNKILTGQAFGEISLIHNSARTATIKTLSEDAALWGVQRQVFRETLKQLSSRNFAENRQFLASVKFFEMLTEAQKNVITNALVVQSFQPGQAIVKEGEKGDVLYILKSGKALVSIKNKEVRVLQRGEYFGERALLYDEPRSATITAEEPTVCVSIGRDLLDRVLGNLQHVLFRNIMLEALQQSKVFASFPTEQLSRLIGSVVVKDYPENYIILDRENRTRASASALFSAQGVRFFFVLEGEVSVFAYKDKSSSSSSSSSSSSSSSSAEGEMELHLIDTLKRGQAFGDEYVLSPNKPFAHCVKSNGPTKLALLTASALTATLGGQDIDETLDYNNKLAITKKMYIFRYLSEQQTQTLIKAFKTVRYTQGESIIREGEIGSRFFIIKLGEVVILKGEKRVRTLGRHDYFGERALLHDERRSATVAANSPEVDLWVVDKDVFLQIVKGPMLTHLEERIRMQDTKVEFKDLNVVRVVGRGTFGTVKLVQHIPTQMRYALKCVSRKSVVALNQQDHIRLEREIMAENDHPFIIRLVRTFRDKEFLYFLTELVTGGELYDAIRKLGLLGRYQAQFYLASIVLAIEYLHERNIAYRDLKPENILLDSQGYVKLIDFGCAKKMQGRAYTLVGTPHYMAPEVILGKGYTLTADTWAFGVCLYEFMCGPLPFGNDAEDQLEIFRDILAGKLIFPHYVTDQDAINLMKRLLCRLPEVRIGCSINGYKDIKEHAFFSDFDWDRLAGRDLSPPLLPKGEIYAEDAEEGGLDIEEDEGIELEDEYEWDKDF

In the first test the test system is Eimeria acervulina. Kind of test: Anticoccidial activity against Eimeria acervulina in chickens assessed as reduction of oocysts at 25 ppm measured after 8 days by ExMAC assay relative to untreated control. The class given is functional. On the set-up: scale not given: the % may be the effect or the level left.
For `CCC(CN(C)C)c1ccn2c(-c3ccnc(N)n3)c(-c3ccc(F)cc3)nc2c1` (stereo unspecified), the Activity is less than 50%.

In the case of `CC(C)(CN)c1ccn2c(-c3ccnc(N)n3)c(-c3ccc(F)cc3)nc2c1`, the Activity is listed as less than 50%.

Consider `CN(CC#N)Cc1ccn2c(-c3ccnc(N)n3)c(-c3ccc(F)cc3)nc2c1`, for which the Activity was found to be 80%.

In the case of `CN(C)C(=N)c1ccn2c(-c3ccnc(N)n3)c(-c3ccc(F)cc3)nc2c1`, the Activity is recorded as 50%.

On to `CNC(=O)c1ccn2c(-c3ccnc(N)n3)c(-c3ccc(F)cc3)nc2c1`, for which the Activity was less than 50%.

As for `Nc1nccc(-c2c(-c3ccc(F)cc3)nc3cc(C4CCNCC4)ccn23)n1`, the Activity is recorded as less than 50%.

A further test addresses cGMP-dependent protein kinase (Eimeria tenella, UniProt Q8MMZ8). Put plainly: Inhibition of Eimeria tenella cGMP-dependent protein kinase.
As for `COCCN(C)Cc1ccn2c(-c3ccnc(N)n3)c(-c3ccc(F)cc3)nc2c1`, the concentration for half-maximal inhibition (IC50) was 0.26 nM.

`CCCC(C)CN1CCC(c2ccn3c(-c4ccnc(N)n4)c(-c4ccc(F)cc4)nc3c2)CC1` (stereo unspecified) registered an IC50 of 0.12 nM.

In the case of `CCC(CN(C)C)c1ccn2c(-c3ccnc(N)n3)c(-c3ccc(F)cc3)nc2c1` (stereo unspecified), 0.4 nM corresponded to half-maximal inhibition (IC50).

Take `CC(C)(CN)c1ccn2c(-c3ccnc(N)n3)c(-c3ccc(F)cc3)nc2c1`: the IC50 came out at 0.26 nM.

`CN(CCO)Cc1ccn2c(-c3ccnc(N)n3)c(-c3ccc(F)cc3)nc2c1`: the midpoint of inhibition, the IC50, lay at 0.4 nM.

In the case of `C#CCN(C)Cc1ccn2c(-c3ccnc(N)n3)c(-c3ccc(F)cc3)nc2c1`, half-maximal inhibition (IC50) was put at 0.65 nM.

The molecule `CN(CC#N)Cc1ccn2c(-c3ccnc(N)n3)c(-c3ccc(F)cc3)nc2c1` had an IC50 of 1.33 nM.

`CN(C)C(=N)c1ccn2c(-c3ccnc(N)n3)c(-c3ccc(F)cc3)nc2c1` yielded an IC50 of 2.5 nM.

Turning to `CCC(C)CN1CCC(c2ccn3c(-c4ccnc(N)n4)c(-c4ccc(F)cc4)nc3c2)CC1` (stereo unspecified), half-maximal inhibition (IC50) required 0.13 nM.

In the case of `CNC(=O)c1ccn2c(-c3ccnc(N)n3)c(-c3ccc(F)cc3)nc2c1`, the IC50 was determined as 3.1 nM.

As to `Nc1nccc(-c2c(-c3ccc(F)cc3)nc3cc(C4CCNCC4)ccn23)n1`, the IC50 amounted to 0.046 nM.

Consider `CC(C)(C)CCN1CCC(c2ccn3c(-c4ccnc(N)n4)c(-c4ccc(F)cc4)nc3c2)CC1`, for which the IC50 was 0.11 nM.

Take `CC(C)(C)NCc1ccn2c(-c3ccnc(N)n3)c(-c3ccc(F)cc3)nc2c1`: the IC50 was 0.35 nM.

As for `CCCCCCN1CCC(c2ccn3c(-c4ccnc(N)n4)c(-c4ccc(F)cc4)nc3c2)CC1`, it took 0.13 nM to reach half-maximal inhibition (IC50).

`Nc1nccc(-c2c(-c3ccc(F)cc3)nc3cc(C4CCN(CCc5ccccc5)CC4)ccn23)n1` yielded an IC50 of 0.07 nM.

For the next test, the system named is Eimeria acervulina. Put plainly: Anticoccidial activity against Eimeria acervulina in chickens assessed as reduction of oocysts at 12.5 ppm measured after 8 days by ExMAC assay relative to untreated control. Details: scale not given: the % may be the effect or the level left. The class given is functional.
`COCCN(C)Cc1ccn2c(-c3ccnc(N)n3)c(-c3ccc(F)cc3)nc2c1`: the Activity is reported as less than 50%.

Regarding `CCCC(C)CN1CCC(c2ccn3c(-c4ccnc(N)n4)c(-c4ccc(F)cc4)nc3c2)CC1` (stereo unspecified), the Activity is listed as less than 50%.

Regarding `CN(CCO)Cc1ccn2c(-c3ccnc(N)n3)c(-c3ccc(F)cc3)nc2c1`, the Activity is on record as less than 50%.

In the case of `C#CCN(C)Cc1ccn2c(-c3ccnc(N)n3)c(-c3ccc(F)cc3)nc2c1`, the Activity is given as less than 50%.

Take `CCC(C)CN1CCC(c2ccn3c(-c4ccnc(N)n4)c(-c4ccc(F)cc4)nc3c2)CC1` (stereo unspecified): the Activity is 80%.

As to `CC(C)(C)CCN1CCC(c2ccn3c(-c4ccnc(N)n4)c(-c4ccc(F)cc4)nc3c2)CC1`, the Activity was less than 50%.

As for `CCCCCCN1CCC(c2ccn3c(-c4ccnc(N)n4)c(-c4ccc(F)cc4)nc3c2)CC1`, the Activity is less than 50%.

Turning to `Nc1nccc(-c2c(-c3ccc(F)cc3)nc3cc(C4CCN(CCc5ccccc5)CC4)ccn23)n1`, the Activity is less than 50%.

For a further test, the system named is Eimeria maxima. Put plainly: Anticoccidial activity against Eimeria maxima in chickens assessed as reduction of oocysts at 25 ppm measured after 8 days by ExMAC assay relative to untreated control. Format: functional. Details: scale not given: the % may be the effect or the level left.
Consider `CCC(CN(C)C)c1ccn2c(-c3ccnc(N)n3)c(-c3ccc(F)cc3)nc2c1` (stereo unspecified), for which the Activity worked out at 100%.

For the molecule `CC(C)(CN)c1ccn2c(-c3ccnc(N)n3)c(-c3ccc(F)cc3)nc2c1`, the Activity is on record as less than 50%.

On to `CN(CC#N)Cc1ccn2c(-c3ccnc(N)n3)c(-c3ccc(F)cc3)nc2c1`, for which the Activity is less than 50%.

Take `CN(C)C(=N)c1ccn2c(-c3ccnc(N)n3)c(-c3ccc(F)cc3)nc2c1`: the Activity is less than 50%.

`CNC(=O)c1ccn2c(-c3ccnc(N)n3)c(-c3ccc(F)cc3)nc2c1`: the Activity amounted to 50%.

`Nc1nccc(-c2c(-c3ccc(F)cc3)nc3cc(C4CCNCC4)ccn23)n1`: the Activity was determined as 100%.

The next test relates to Eimeria mitis. Put plainly: Anticoccidial activity against Eimeria mitis in chickens assessed as reduction of oocysts at 12.5 ppm measured after 8 days by ExMAC assay relative to untreated control. Format: functional. On the set-up: scale not given: the % may be the effect or the level left.
Regarding `COCCN(C)Cc1ccn2c(-c3ccnc(N)n3)c(-c3ccc(F)cc3)nc2c1`, the Activity is recorded as less than 50%.

Regarding `CCCC(C)CN1CCC(c2ccn3c(-c4ccnc(N)n4)c(-c4ccc(F)cc4)nc3c2)CC1` (stereo unspecified), the Activity was less than 50%.

As to `CN(CCO)Cc1ccn2c(-c3ccnc(N)n3)c(-c3ccc(F)cc3)nc2c1`, the Activity is reported as less than 50%.

Consider `C#CCN(C)Cc1ccn2c(-c3ccnc(N)n3)c(-c3ccc(F)cc3)nc2c1`, for which the Activity was less than 50%.

Turning to `CCC(C)CN1CCC(c2ccn3c(-c4ccnc(N)n4)c(-c4ccc(F)cc4)nc3c2)CC1` (stereo unspecified), the Activity was less than 50%.

Turning to `CC(C)(C)CCN1CCC(c2ccn3c(-c4ccnc(N)n4)c(-c4ccc(F)cc4)nc3c2)CC1`, the Activity is less than 50%.

Consider `CCCCCCN1CCC(c2ccn3c(-c4ccnc(N)n4)c(-c4ccc(F)cc4)nc3c2)CC1`, for which the Activity is less than 50%.

As for `Nc1nccc(-c2c(-c3ccc(F)cc3)nc3cc(C4CCN(CCc5ccccc5)CC4)ccn23)n1`, the Activity was less than 50%.

The test system of the next test is Eimeria tenella. Put plainly: Anticoccidial activity against Eimeria tenella in chickens assessed as reduction of oocysts at 25 ppm measured after 8 days by ExMAC assay relative to untreated control. On the set-up: scale not given: the % may be the effect or the level left. Format: functional.
For `CCC(CN(C)C)c1ccn2c(-c3ccnc(N)n3)c(-c3ccc(F)cc3)nc2c1` (stereo unspecified), the Activity was 100%.

`CC(C)(CN)c1ccn2c(-c3ccnc(N)n3)c(-c3ccc(F)cc3)nc2c1`: the Activity is on record as 50%.

`CN(CC#N)Cc1ccn2c(-c3ccnc(N)n3)c(-c3ccc(F)cc3)nc2c1`: the Activity stood at 80%.

With `CN(C)C(=N)c1ccn2c(-c3ccnc(N)n3)c(-c3ccc(F)cc3)nc2c1`, the Activity was less than 50%.

As for `CNC(=O)c1ccn2c(-c3ccnc(N)n3)c(-c3ccc(F)cc3)nc2c1`, the Activity is reported as less than 50%.

On to `Nc1nccc(-c2c(-c3ccc(F)cc3)nc3cc(C4CCNCC4)ccn23)n1`, for which the Activity is given as less than 50%.

The test system of the next test is Eimeria maxima. Kind of test: Anticoccidial activity against Eimeria maxima in chickens assessed as reduction of oocysts at 12.5 ppm measured after 8 days by ExMAC assay relative to untreated control. Format: functional. On the set-up: scale not given: the % may be the effect or the level left.
Consider `COCCN(C)Cc1ccn2c(-c3ccnc(N)n3)c(-c3ccc(F)cc3)nc2c1`, for which the Activity is on record as less than 50%.

With `CN(CCO)Cc1ccn2c(-c3ccnc(N)n3)c(-c3ccc(F)cc3)nc2c1`, the Activity is given as less than 50%.

As to `C#CCN(C)Cc1ccn2c(-c3ccnc(N)n3)c(-c3ccc(F)cc3)nc2c1`, the Activity is on record as less than 50%.

The subject of the next test is Eimeria mitis. Put plainly: Anticoccidial activity against Eimeria mitis in chickens assessed as reduction of oocysts at 25 ppm measured after 8 days by ExMAC assay relative to untreated control. Format: functional. Details: scale not given: the % may be the effect or the level left.
In the case of `CCC(CN(C)C)c1ccn2c(-c3ccnc(N)n3)c(-c3ccc(F)cc3)nc2c1` (stereo unspecified), the Activity is less than 50%.

For the molecule `CC(C)(CN)c1ccn2c(-c3ccnc(N)n3)c(-c3ccc(F)cc3)nc2c1`, the Activity is given as 50%.

Take `CN(CC#N)Cc1ccn2c(-c3ccnc(N)n3)c(-c3ccc(F)cc3)nc2c1`: the Activity is reported as less than 50%.

As to `CN(C)C(=N)c1ccn2c(-c3ccnc(N)n3)c(-c3ccc(F)cc3)nc2c1`, the Activity is recorded as less than 50%.

As for `CNC(=O)c1ccn2c(-c3ccnc(N)n3)c(-c3ccc(F)cc3)nc2c1`, the Activity is less than 50%.

As to `Nc1nccc(-c2c(-c3ccc(F)cc3)nc3cc(C4CCNCC4)ccn23)n1`, the Activity is less than 50%.

Another test relates to Eimeria tenella. Put plainly: Anticoccidial activity against Eimeria tenella in chickens assessed as reduction of oocysts at 12.5 ppm measured after 8 days by ExMAC assay relative to untreated control. The class given is functional. On the set-up: scale not given: the % may be the effect or the level left.
`COCCN(C)Cc1ccn2c(-c3ccnc(N)n3)c(-c3ccc(F)cc3)nc2c1`: the Activity is less than 50%.

`CCCC(C)CN1CCC(c2ccn3c(-c4ccnc(N)n4)c(-c4ccc(F)cc4)nc3c2)CC1` (stereo unspecified): the Activity was determined as 80%.

Consider `CN(CCO)Cc1ccn2c(-c3ccnc(N)n3)c(-c3ccc(F)cc3)nc2c1`, for which the Activity is less than 50%.

In the case of `C#CCN(C)Cc1ccn2c(-c3ccnc(N)n3)c(-c3ccc(F)cc3)nc2c1`, the Activity was less than 50%.

With `CCC(C)CN1CCC(c2ccn3c(-c4ccnc(N)n4)c(-c4ccc(F)cc4)nc3c2)CC1` (stereo unspecified), the Activity was found to be 80%.

Turning to `CC(C)(C)CCN1CCC(c2ccn3c(-c4ccnc(N)n4)c(-c4ccc(F)cc4)nc3c2)CC1`, the Activity is reported as 80%.

For the molecule `CCCCCCN1CCC(c2ccn3c(-c4ccnc(N)n4)c(-c4ccc(F)cc4)nc3c2)CC1`, the Activity is 50%.

`Nc1nccc(-c2c(-c3ccc(F)cc3)nc3cc(C4CCN(CCc5ccccc5)CC4)ccn23)n1`: the Activity is recorded as less than 50%.
